The record followed here is patent US8071780B2, “2-Hydroxymethyl-3,4,5-trihydroxy-1-benzilpiperidine derivatives as inhibitors of glucosylceramide” (Actelion Pharmaceuticals Ltd., priority 2003, dated 2011).

The target in assay [1] is T1, human recombinant GCS expressed in insect cells (Homo sapiens, UniProt Q16739).
T1 construct: made in house; host or cells: insect cells
T1 sequence (Q16739 1-394): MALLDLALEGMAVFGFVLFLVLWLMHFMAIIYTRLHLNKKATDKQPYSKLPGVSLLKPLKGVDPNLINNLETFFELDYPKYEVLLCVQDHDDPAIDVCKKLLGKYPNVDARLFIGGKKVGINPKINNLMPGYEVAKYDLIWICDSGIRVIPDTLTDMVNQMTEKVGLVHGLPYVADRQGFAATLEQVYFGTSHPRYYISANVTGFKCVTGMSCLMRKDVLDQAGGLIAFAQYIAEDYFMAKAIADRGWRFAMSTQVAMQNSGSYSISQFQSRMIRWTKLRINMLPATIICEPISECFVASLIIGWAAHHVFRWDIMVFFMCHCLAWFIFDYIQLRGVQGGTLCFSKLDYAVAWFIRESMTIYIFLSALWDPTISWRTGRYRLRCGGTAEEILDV
Kind of assay: Inhibition of GCS (glucosylceramide synthase). In kind it is biochemical. The protocol: The assay for inhibition of GCS was performed essentially as described in Platt et al., J. Biol. Chem., (1994), 269, 27108, the enzyme source being human recombinant GCS expressed in insect cells.

Assay [2] deals with T2, non-lysosomal-β-glucocerebrosidase (Homo sapiens, UniProt Q9HCG7).
T2 construct: whole cell extracts of MCF7 (a human breast carcinoma cell line) was used as the source of the enzyme; endogenous in cells; host or cells: MCF7 whole cell extract
T2 sequence (Q9HCG7 1-927): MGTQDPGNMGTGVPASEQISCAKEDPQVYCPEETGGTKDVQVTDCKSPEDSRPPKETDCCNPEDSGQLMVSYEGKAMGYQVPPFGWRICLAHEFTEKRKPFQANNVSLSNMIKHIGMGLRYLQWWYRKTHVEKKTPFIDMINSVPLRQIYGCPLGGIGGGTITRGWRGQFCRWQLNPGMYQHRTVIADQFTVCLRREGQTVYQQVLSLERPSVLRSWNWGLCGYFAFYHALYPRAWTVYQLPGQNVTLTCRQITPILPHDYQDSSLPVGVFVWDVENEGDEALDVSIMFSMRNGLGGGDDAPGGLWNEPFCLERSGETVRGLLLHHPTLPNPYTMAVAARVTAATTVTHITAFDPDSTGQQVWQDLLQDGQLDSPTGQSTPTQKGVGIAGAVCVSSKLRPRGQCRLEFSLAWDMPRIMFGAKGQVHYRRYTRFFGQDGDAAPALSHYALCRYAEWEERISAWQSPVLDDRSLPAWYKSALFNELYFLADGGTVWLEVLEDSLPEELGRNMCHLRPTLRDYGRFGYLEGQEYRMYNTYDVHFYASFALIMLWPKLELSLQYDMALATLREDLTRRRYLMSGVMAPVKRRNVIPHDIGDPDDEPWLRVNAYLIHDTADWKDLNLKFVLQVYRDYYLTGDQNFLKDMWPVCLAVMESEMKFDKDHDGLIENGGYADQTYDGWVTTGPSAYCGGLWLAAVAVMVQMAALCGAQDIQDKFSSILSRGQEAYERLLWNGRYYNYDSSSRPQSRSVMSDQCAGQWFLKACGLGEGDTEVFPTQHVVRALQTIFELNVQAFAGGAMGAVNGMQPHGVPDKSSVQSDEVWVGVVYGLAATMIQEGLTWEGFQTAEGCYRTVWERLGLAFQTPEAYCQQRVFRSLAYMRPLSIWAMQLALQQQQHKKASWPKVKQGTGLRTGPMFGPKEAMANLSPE
Kind of assay: Inhibition of non-lysosomal-β-glucocerebrosidase. In kind it is biochemical. The conditions noted are these: whole cell extracts of MCF7 as enzyme source; 5 mM 4-MU β-glucoside; pH 5.8. The method, then: Inhibition of non-lysosomal-β-glucocerebrosidase
The assay for inhibition of non-lysosomal-β-glucocerebrosidase was essentially carried out as described in Overkleeft, H. S. et al., J. Biol. Chem. (1998) 273, 26522-26527 with the following differences: whole cell extracts of MCF7 (a human breast carcinoma cell line) was used as the source of the enzyme instead of splenic membrane suspensions; 5 mM instead of 3 mM, 4-MU β-glucoside was used as substrate and 0.2M citrate/phosphate (pH 5.8) was used instead of McIlvaine buffer.

The next assay deals with T3, human GCS (Homo sapiens, UniProt Q16739).
T3 construct: endogenous in cells; host or cells: MCF-7
T3 sequence (Q16739 1-394): T1 sequence (Q16739 1-394)
Kind of assay: Cell-based IC50 for GCS inhibition by measuring glucosylceramide (GlcCer) depletion. The conditions noted are these: MCF-7 cells cultured 5-7 days with compound; GlcCer depletion by HPTLC; read-out: Inhibition of GCS Cellular-based (IC50 μM). The protocol: Estimating the Cell-Based IC50 for GCS Inhibition by Measuring Glucosylceramide (GlcCer) Depletion
Human mammary epithelial cells (MCF-7) were cultured for 5-7 days, with varying concentrations of a compound of the invention to be tested (0; 0.01; 0.05; 0.25; 1.25 and 6.25 μM). The cells were harvested and the total cellular lipids extracted. Neutral glycolipids were separated by partitioning in a DIPE/1-butanol/saline suspension, according to methods well known to those skilled in the art. The neutral glycolipid extracts were then separated by High-Performance Thin Layer Chromatography (HPTLC), using non-polar TLC conditions (chloroform:methanol: 0.2% CaCl2; 65:35:8), according to methods well known to those skilled in the art. GlcCer bands were visualized and the TLC plates were scanned immediately. Scion Image software was then used to quantify GlcCer in the samples relative to a GlcCer standard. This enabled a cell-based IC50 to be calculated for compounds of the invention for GCS inhibition.

Take `CCCCOc1ccc(CN2C[C@H](O)[C@@H](O)[C@H](O)[C@@H]2CO)cc1` [Example 2, 3,4,5-Piperidinetriol, 1-[(4-butoxyphenyl)methyl]-2-(hydroxymethyl)-, (2S,3R,4R,5S)]: the values for the IC50 in assay [1] and in assay [2] were 0.42 µM and 0.004 µM, respectively.
With `CCCCCOc1ccc(CN2C[C@H](O)[C@@H](O)[C@H](O)[C@@H]2CO)cc1` [Example 1, 3,4,5-Piperidinetriol, 2-(hydroxymethyl)-1-[(4-pentyloxyphenyl)methyl]-, (2S,3R,4R,5S)], the IC50 at human GCS is around 0.015 µM; in assay [1], 0.15 µM; in assay [2], 0.001 µM.
